Results from US8008009B2, “Method for ProNGF assay for in vitro diagnosis of cancer in particular breast, thyroid or lung cancer and therapeutic use of ProNGF” (Biomerieux, priority 2006, dated 2011).

Assays:
Assay type in all cases: cell-based, human
MCF-7 cells [1] = assay: Collagen type I gel invasion test; conditions: 200 ng/mL, starving medium, 24 h
Experimental: (§1) A “starving” medium was used, “starving” denoting a medium identical to the complete medium but without serum and supplemented with 2 μg/mL of fibronectin and 30 μg/mL of transferrin. For the various biological activity measurements, the various test molecules (ProNGF, NGF and galardin) are added to this starving medium. During the treatments, the media are renewed every 24 hours.
(§2) The migration and invasion tests are carried out as previously described by Bracke et al. (1999, J Natl Cancer Inst, 91: 354-359). The protocols for using Boyden chambers and for invasion in collagen gel are described below.
The collagen type I gel is prepared in the following way: 2.1 mL of collagen Type I, 0.8 mL of EMEM (10×), 4.6 mL of PBS, 0.8 mL of NaHCO3 at 0.25 M and 0.15 mL of 1 M NaOH. 1.25 mL are deposited in the wells of a 6-well plate. Once the gel has solidified, 100 000 cells are seeded with starving medium and the various test molecules for 24 hours. The cells are subsequently counted and the invasion index is determined (number of deep cells related to the number of cells at the surface). Each condition is carried out in triplicate and a minimum of 45 fields is counted per condition.
The invasive capacity of the ProNGF-stimulated MCF-7 cells was tested in collagen type I gel. Each condition is carried out in triplicate and a minimum of 45 fields is counted per condition. […]

MCF-7 cells [2] = assay: Boyden chamber (Transwell) migration test; conditions: 200 ng/mL in lower chamber, starving medium, 24 h, compared with starving medium alone
Experimental: as §1, §2
12-well plates containing Transwells® with a pore diameter of 12 μm are equilibrated with starving medium and placed at 37° C. under 5% CO2 for 2 hours. The medium is then drawn off and replaced, in the lower chamber, by starving medium with the various test molecules, whereas, in the upper chamber, 40 000 cells are seeded in starving medium alone. […] Each condition is carried out in duplicate; a minimum of 40 fields is counted for each condition. […]
The effects of ProNGF on the migration of mammary epithelial cells were comprehended by means of tests in Boyden chambers (Transwell®). Each condition was carried out in duplicate and a minimum of 40 fields was counted. […] The cells having crossed the Transwell® were then counted. *p<0.05, comparison with the starving medium alone condition.

MDA-MB-231 cells = assay: Cell proliferation (cell count) after siRNA transfection; conditions: 3 μg siRNA, EMEM culture medium, counted at 24, 48 and 96 h; Mock and siGFP controls double between 24 and 48 h
Experimental: The interfering RNA (siRNA) transfection experiments were carried out with the Cell Line Nucleofector kit from Amaxa and the corresponding electroporation apparatus. This system makes it possible to obtain a high efficiency of gene transfer to the nucleus (nucleofection).
The MDA-MB-231 cells are passaged 2 days before the transfection, so as to reach 80% confluence at the time of the experiment. The cells to be transfected are trypsinized and then counted. The cell pellet (1 million cells) is taken up in 100 μl of Nucleofector Kit V solution and 3 μg of siRNA are added. This cell suspension is transferred into an electroporation cuvette, placed in the Amaxa apparatus and electroporated according to the X-13 program. The cells are subsequently put back in culture in a well of a 6-well plate for 24-72 h. The cell proliferation is followed over time and the cells are counted at regular time intervals. Anti-Sortilin Western blotting is carried out on the lysates recovered at various times, according to the protocol described in the previous paragraph, “Expression of Sortilin”.
MDA-MB-231 cells maintained in the EMEM culture medium were transfected either with culture medium alone (Mock), or with an interfering RNA directed against the GFP protein (siGFP) or with an interfering RNA directed against Sortilin (siSORT).

Sortilin = assay: Anti-Sortilin Western blotting after siRNA transfection; conditions: MDA-MB-231 cells transfected with siRNA
Experimental: For the Western blotting, the membranes are saturated with 4% bovine serum albumin in a solution of TBS (Tris Buffered Saline) 0.1% Tween 20 (17.54 g NaCl, 2.42 g Tris, 2 mL tween 20, QS 2 L, pH adjusted to 7.4) at ambient temperature for 2 hours. After saturation, the membranes are incubated overnight at 4° C. with the various primary antibodies: anti-Sortilin (BD612101 from BD Biosciences) at 1:2000, anti-Actin (A-2066 from Sigma) at 1:5000 in the saturation solution. After rinsing with TBS 0.1% Tween 20, the membranes are incubated for 1 hour at ambient temperature with an anti-rabbit secondary antibody (A-1949 from Sigma, France) coupled to horseradish peroxidase, at 1:20000 in the saturation solution. After rinsing, visualization is carried out with the ECL system (Pierce Interchim, France) according to the recommended data for use.
The MDA-MB-231 cells are passaged 2 days before the transfection, so as to reach 80% confluence at the time of the experiment. The cells to be transfected are trypsinized and then counted. The cell pellet (1 million cells) is taken up in 100 μl of Nucleofector Kit V solution and 3 μg of siRNA are added. This cell suspension is transferred into an electroporation cuvette, placed in the Amaxa apparatus and electroporated according to the X-13 program. […] The cell proliferation is followed over time and the cells are counted at regular time intervals. […]

ProNGF = assay: Anti-ProNGF Western blotting after siRNA transfection, densitometry; conditions: MCF-7 cells, 3 μg siRNA
Experimental: The MCF-7 cells are passaged 3-4 days before transfection, so as to reach 50% confluence at the time of the experiment. Two million cells are taken up in 100 μl of Nucleofector Kit V solution and 3 μg of siRNA are added. The transfection program used on the Nucleofector is E-14. Anti-ProNGF Western blotting is carried out on the lysates recovered after 24 hours or after 48 hours, according to the protocol described in point 2.1. The relative amount of ProNGF detected by blotting is evaluated with the QuantityOne software (Bio-Rad), related to the equal loading (actin) and presented in the form of a histogram where 100% is assigned to the siGFP control condition.
The MCF-7 cells were transfected with 3 μg interfering RNA (siRNA) directed against GFP (siGFP) or against ProNGF (siProNGF). After 24 to 48 h of culture, the cells were lysed and ProNGF Western blotting was carried out. The relative amount of ProNGF detected by blotting was evaluated with the QuantityOne software (Bio-Rad) related to the actin equal loading and presented in the form of a histogram where 100% is assigned to the siGFP control condition (FIG. 10). […] Densitometric analysis made it possible to evaluate this decrease at 59% after 24 h of transfection.

## ProNGF: human recombinant nerve growth factor precursor sold by SCIL proteins
MCF-7 cells [1]
  invasion (invasion index): stimulates MCF-7 invasion
MCF-7 cells [2]
  cell migration: increase their ability to migrate

## NGF: recombinant nerve growth factor obtained from R&D systems
MCF-7 cells [2]
  cell migration: increase their ability to migrate, in a similar manner to NGF

## siSORT: interfering RNA which decreases the expression of Sortilin; double-stranded RNA of SEQ ID No.3 and SEQ ID No.4 (chain 1 GGUGGUGUUAACAGCAGAGNN; chain 2 CUCUGCUGUUAACACCACCNN; listed as RNA, chemistry not given here)
MDA-MB-231 cells
  number of MDA-MB-231 cells in culture over time: does not increase over time
Sortilin
  level of expression of the Sortilin protein: decreased the level of expression of the Sortilin protein

## siProNGF: interfering RNA directed against ProNGF; double-stranded RNA of SEQ ID No.5 and SEQ ID No.6 (chain 1 CAGUGUAUUCAAACAGUAUNN; chain 2 GUACUGUUUGAAUACACUGNN; listed as RNA, chemistry not given here)
ProNGF; 24 to 48 h of culture
  expression of the ProNGF protein (photographs of the blots): decreases the expression of the ProNGF protein
ProNGF; after 24 h of transfection, 100% assigned to siGFP control, related to actin
  decrease in expression of ProNGF (densitometric analysis): 59%
